Test results reported in ChEMBL document CHEMBL5465560, “Selectivity Literature for EUbOPEN Chemogenomic Library” (2024).
One block for each compound: values may come before it.

What was measured:
[1] = biological target: Proto-oncogene tyrosine-protein kinase Src (Homo sapiens, UniProt P12931); experiment: Selectivity interaction (KinomeScan (DiscoverX)) EUB0001868a SRC; details: at 1 µM
[2] = biological target: Serine/threonine-protein kinase PAK 4 (Homo sapiens, UniProt O96013); experiment: Selectivity interaction (KinomeScan (DiscoverX)) EUB0001049a PAK4; details: at 1 µM
Serine/threonine-protein kinase PAK 4, sequence (O96013 whole entry, looked up): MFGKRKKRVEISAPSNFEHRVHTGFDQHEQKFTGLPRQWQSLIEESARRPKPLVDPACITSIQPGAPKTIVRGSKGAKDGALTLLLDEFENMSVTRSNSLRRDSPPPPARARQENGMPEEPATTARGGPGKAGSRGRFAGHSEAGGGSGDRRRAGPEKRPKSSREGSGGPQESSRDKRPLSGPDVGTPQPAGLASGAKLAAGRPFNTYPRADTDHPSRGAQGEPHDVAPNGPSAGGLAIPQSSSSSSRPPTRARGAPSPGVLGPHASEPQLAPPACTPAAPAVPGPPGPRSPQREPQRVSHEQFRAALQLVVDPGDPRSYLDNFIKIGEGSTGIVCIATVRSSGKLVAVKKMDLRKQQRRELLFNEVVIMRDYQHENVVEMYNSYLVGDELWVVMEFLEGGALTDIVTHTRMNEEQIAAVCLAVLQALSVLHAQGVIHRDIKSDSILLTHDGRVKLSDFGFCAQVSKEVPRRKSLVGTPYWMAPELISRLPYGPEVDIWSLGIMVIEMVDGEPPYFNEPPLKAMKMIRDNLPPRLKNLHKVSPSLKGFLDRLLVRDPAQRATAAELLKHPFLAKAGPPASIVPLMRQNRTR

[3] = biological target: T1, Myosin-IIIb (Homo sapiens) (UniProt Q8WXR4); experiment: Selectivity interaction (Ambit KINOMEscan and KiNATiv profiling in Jurkat cells) EUB0000090b MYO3B; assay type: cell-based; details: at 1 µM
T1 sequence (whole entry): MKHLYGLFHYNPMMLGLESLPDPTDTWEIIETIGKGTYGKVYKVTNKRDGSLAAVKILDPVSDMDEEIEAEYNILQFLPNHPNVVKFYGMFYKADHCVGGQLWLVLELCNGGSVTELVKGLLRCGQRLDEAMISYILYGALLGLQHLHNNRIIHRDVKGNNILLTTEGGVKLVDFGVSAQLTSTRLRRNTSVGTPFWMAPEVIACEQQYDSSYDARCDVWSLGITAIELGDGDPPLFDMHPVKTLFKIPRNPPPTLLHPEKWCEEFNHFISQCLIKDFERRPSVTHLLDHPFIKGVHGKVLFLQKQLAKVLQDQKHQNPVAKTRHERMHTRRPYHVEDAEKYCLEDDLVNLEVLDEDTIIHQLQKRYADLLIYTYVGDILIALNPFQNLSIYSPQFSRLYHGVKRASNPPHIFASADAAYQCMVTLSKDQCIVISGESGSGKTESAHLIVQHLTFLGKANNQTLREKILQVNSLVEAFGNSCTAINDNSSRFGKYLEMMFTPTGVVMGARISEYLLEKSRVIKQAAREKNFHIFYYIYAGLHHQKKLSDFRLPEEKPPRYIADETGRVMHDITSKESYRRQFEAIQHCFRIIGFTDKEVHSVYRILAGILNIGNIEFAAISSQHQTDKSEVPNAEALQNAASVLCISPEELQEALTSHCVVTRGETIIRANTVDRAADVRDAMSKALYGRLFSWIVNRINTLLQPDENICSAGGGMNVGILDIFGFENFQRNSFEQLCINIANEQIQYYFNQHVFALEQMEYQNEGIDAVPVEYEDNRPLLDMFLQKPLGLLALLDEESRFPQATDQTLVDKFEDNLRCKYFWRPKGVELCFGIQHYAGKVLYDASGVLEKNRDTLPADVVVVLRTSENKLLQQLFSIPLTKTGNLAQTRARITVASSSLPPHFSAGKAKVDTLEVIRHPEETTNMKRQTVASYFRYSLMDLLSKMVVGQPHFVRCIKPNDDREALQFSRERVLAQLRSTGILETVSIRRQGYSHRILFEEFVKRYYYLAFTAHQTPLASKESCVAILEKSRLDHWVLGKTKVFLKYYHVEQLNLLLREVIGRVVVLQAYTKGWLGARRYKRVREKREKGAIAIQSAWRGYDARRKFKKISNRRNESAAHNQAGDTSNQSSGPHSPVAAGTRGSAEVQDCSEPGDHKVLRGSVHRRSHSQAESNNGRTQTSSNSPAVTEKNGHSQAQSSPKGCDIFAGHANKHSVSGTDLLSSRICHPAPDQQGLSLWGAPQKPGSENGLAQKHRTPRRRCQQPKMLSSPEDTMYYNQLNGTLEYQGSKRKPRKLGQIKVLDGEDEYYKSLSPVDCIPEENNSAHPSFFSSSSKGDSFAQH

[4] = biological target: Cyclin-dependent kinase 16 (Homo sapiens) (UniProt Q00536); experiment: Selectivity interaction (ActivX KiNativ screen (kinase selectivity in THP-1 cell lysates)) EUB0000639a CDK16; assay type: subcellular; details: lysate, at 0.2 µM
Cyclin-dependent kinase 16 (Homo sapiens), sequence (Q00536 whole entry): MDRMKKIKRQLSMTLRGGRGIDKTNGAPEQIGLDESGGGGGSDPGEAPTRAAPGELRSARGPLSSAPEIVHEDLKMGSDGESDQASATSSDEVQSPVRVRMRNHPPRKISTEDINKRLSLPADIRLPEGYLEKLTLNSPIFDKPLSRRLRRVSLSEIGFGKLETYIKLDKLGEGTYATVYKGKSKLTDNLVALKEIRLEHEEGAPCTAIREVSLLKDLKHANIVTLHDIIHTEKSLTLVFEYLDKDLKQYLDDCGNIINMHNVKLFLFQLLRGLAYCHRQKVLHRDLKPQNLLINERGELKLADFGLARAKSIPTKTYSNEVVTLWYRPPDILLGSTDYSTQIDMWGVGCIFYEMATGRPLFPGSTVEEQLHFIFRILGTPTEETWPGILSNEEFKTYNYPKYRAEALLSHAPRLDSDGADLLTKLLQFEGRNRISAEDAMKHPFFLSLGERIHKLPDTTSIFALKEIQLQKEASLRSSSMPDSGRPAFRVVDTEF

[5] = biological target: Neuronal acetylcholine receptor subunit beta-2 (Homo sapiens) (UniProt P17787); experiment: Selectivity interaction (Eurofins CEREP Diversity Profile (receptors and ion channels)) EUB0000279b CHRNB2; details: at 10 µM
Neuronal acetylcholine receptor subunit beta-2 (Homo sapiens), sequence (P17787 whole entry): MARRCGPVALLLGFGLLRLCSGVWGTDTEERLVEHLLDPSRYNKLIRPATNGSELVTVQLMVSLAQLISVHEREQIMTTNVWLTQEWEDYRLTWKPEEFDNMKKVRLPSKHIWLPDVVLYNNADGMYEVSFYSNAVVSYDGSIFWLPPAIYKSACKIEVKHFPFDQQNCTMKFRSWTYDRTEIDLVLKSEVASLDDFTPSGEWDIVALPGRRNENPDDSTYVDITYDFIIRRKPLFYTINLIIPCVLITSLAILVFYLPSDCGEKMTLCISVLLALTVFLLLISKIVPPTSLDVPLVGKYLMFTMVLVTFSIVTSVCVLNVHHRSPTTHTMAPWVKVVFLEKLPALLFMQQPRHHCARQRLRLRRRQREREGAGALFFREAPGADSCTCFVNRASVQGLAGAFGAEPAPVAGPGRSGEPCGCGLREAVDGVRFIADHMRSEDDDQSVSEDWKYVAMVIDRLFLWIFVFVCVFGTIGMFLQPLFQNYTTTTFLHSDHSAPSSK

[6] = biological target: T2, Protein kinase C epsilon type (Homo sapiens) (UniProt Q02156); experiment: Selectivity interaction (KinomeScan (DiscoverX)) EUB0000595a PRKCE; details: at 10 µM
T2 sequence (whole entry): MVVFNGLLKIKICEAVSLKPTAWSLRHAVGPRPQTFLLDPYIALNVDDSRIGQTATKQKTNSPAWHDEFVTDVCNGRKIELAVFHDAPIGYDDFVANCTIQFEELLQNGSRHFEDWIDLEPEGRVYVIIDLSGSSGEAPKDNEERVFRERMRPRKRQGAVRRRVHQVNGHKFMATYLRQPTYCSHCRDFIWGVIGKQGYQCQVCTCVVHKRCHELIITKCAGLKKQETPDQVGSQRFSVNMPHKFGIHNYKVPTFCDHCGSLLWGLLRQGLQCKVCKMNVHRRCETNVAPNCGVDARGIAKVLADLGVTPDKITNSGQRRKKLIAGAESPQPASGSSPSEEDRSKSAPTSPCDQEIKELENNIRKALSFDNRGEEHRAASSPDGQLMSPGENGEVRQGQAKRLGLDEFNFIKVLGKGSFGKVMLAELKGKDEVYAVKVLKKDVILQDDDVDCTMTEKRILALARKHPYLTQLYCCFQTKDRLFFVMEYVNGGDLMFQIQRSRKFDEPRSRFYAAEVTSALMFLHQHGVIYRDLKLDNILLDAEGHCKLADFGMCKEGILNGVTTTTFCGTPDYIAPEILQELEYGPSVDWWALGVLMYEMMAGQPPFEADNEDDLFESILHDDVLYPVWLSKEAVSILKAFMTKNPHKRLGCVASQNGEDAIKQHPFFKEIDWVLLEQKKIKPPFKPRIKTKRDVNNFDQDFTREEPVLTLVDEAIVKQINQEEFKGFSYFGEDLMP

[7] = biological target: Tyrosine-protein kinase ABL1 (Homo sapiens, UniProt P00519); experiment: Selectivity interaction (Kinase panel (KiNativ target engagement assay in Jurkat cells)) EUB0001635a ABL1; assay type: cell-based; details: Selectivity number of off-targets 0.0, Selectivity number of targets 233.0, Source Knowledge https://www.sciencedirect.com/science/article/pii/S2451945619300674?via%3Dihub, at 1 µM
Tyrosine-protein kinase ABL1, sequence (P00519 whole entry): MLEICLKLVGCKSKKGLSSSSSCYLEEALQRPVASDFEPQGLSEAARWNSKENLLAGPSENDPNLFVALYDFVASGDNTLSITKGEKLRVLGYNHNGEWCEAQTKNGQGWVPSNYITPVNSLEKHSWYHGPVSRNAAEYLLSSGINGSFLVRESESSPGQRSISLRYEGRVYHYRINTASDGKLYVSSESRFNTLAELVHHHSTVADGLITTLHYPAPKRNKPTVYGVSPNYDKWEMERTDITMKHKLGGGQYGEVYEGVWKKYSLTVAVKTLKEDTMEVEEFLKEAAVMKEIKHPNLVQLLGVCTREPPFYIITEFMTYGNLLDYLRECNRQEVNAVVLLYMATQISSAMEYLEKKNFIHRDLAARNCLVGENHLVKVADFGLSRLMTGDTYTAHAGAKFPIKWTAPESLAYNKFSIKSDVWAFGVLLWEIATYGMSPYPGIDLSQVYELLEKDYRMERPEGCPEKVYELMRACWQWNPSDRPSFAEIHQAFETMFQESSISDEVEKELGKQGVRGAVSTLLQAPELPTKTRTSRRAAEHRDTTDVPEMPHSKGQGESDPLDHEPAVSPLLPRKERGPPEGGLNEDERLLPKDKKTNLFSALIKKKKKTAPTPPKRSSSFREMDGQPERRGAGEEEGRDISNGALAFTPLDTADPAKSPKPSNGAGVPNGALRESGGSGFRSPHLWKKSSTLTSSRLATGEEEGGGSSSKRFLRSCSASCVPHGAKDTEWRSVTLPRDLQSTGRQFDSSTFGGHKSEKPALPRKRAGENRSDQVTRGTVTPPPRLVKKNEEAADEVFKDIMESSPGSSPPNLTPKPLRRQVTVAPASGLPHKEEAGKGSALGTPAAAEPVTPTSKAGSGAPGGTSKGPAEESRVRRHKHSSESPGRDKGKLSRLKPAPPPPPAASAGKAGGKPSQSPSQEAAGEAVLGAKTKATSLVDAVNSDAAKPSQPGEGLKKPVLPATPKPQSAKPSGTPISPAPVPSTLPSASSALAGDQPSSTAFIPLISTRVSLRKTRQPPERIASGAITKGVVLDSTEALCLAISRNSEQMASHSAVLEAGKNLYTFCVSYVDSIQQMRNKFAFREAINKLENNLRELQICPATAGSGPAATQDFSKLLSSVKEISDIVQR

Proto-oncogene tyrosine-protein kinase Src, sequence (P12931 2-536 limits assumed): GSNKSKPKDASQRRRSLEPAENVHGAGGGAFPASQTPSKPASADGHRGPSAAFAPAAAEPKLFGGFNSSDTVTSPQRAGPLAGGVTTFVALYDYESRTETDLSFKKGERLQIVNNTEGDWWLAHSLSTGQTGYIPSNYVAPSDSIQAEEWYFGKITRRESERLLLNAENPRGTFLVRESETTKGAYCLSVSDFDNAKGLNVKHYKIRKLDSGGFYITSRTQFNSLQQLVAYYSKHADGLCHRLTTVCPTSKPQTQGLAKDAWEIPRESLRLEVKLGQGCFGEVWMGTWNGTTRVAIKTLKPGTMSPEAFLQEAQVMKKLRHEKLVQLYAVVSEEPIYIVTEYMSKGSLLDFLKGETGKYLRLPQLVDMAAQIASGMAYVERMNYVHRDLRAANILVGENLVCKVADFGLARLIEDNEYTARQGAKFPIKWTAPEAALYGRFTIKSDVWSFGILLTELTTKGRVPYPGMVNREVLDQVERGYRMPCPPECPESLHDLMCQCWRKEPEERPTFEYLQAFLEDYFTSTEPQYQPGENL

- % of control [1]: 31%
Structure (SMILES): Cc1cc(-c2ccnc(Nc3cnn(C)c3)n2)ccc1CNC(=O)N1CC(OC(C)C)C1

Structure (SMILES): COc1cc(Nc2nc(C)cc(-c3cnn4nc(OC)ccc34)n2)cc(C(F)(F)F)c1
- % of control [2]: 88%

Structure (SMILES): CN(C)C/C=C/C(=O)Nc1ccc(C(=O)N2CCCC(Nc3ncc(Cl)c(-c4c[nH]c5ccccc45)n3)C2)cc1 (configuration not stated)
- % of control [3]: 100%

- % of inhibition [4]: -0.8%
Structure (SMILES): CC[C@@H]1[C@H](F)C(=O)N[C@@H]1COc1nccc2cc(C(N)=O)c(OC)cc12 [ZIMLOVISERTIB]

- % of control [5]: 105%
Structure (SMILES): CC(=O)c1cc(-c2ccccc2OCC2CC2)c2ncccn12

Structure (SMILES): COCC(=O)NC/C=C/c1ccc2ncnc(Nc3ccc(Oc4ccc(C)nc4)c(C)c3)c2c1 [CP-724714]
- % of control [6]: 100%

Structure (SMILES): C=CC(=O)Nc1ccc(C(=O)Nc2[nH]nc3c2CN(C(=O)N[C@H](CN(C)C)c2ccccc2)C3(C)C)cc1
- % of engagement [7]: -12.6%
